Assay results from US12714702B2, “Compositions and methods for treating or preventing pulmonary hypertension” (priority 2020, dated 2026).

Legend:
[1] = test system: serum starved human PASMC; test: Proliferation after cell starvation, CyQUANT Direct; type: cell-based; settings: Day 5 at 3.1 and 6.2 μM, Day 3 at 6.2 μM
Experimental: Primary human PASMC were treated with QA up to 6.2 μM concentration. Cell proliferation was quantified by Cyquant Direct.
Briefly, diseased IPAH SMC II cells were seeded in TC-treated 96 well plates in FBS-rich medium and were allowed to adhere overnight. Following day, FBS-rich media was replaced with FBS-Starved media (0% FBS). Cells were further incubated at 37° C./5% CO2 for 24 hours followed by treatments with varying concentrations of QA (1.5-, 3.1-, and 6.2-μM) with dilutions being made in FBS-Starved media. Cellular proliferation was measured as described herein.
In-vitro studies to measure anti-proliferative activity of QA against pulmonary hypertension were performed using primary human PASMC (FIG. 3), primary bovine PASMC (FIG. 4) and high altitude PASMC (HAPASMC) (FIG. 4). HAPASMC, due to prolonged hypoxia exposure, are known to be hyper-proliferative in regular culture conditions, while hyper-proliferation was induced in PASMC cells by 24 hour serum starvation, or by exposure to 5-hydroxytryptamine (5-HT). […] As hyper-proliferation of vascular smooth muscle cells is one of the primary underlying causes for clinical progression of PH pathogenesis, these experiments highlight the therapeutic potential of QA in reversing PH symptoms and progression at non-toxic doses.

[2] = test system: SU5416/hypoxia-induced PAH model; settings: SU5416/hypoxia rats, QA 10 mg/kg i.p. once-a-day for 3 weeks from Day 1
[3] = test system: Ki67, PCNA, vWF, α-SMA in SU5416/Hypoxia-induced PAH animal lung tissue; test: SU5416/hypoxia model, immunofluorescence of lung tissue; type: in vivo, rat; settings: SU5416/hypoxia rats
Experimental: Preclinical in-vivo studies for QA were earlier performed at a dose of 10 mg/kg once-a-day in a SU5416/Hypoxia-induced preventative/prophylactic PAH model. Hemodynamic parameters were collected and lung tissues were also collected and were sectioned for visualizing the impact of QA treatment on various PAH biomarkers in-vivo.
Paraffin embedded tissue sections for control animals, hypoxia induced PAH animals and QA treated animals were further subjected to immunofluorescent staining to analyze expression levels of essential molecular markers. Deparaffinization of tissues was done by exposing tissue sections to a solution of xylene for 3 minutes twice followed by washing with 200 proof absolute 99.8% ethanol and 50% ethanol. Tissues were further washed with 1×PBS twice to ensure complete deparaffinization. Similar protocol was followed hereon for immunofluorescent staining of tissue sections.

[4] = test system: serum-starved bovine PASMC; test: Anti-proliferative efficacy in serum-starved bovine PASMC; type: cell-based; settings: 1.5-5.0 μM, time- and concentration-dependent
Experimental: (§1) Data represent mean±SD (n=5) repeated over 3 experiments. *p<0.05.
(§2) Human or bovine PASMC were treated with varying concentrations of QA (1.5-, 3.1-, and 6.2-μM). Cellular proliferation was measured at day 1, day 3 and day 5 by following the manufacturer's protocol. Briefly, a reagent mix of nucleic acid stain and background suppressor were added in PBS followed by addition of the mix in treatment wells (100 μL/well). The plates were incubated at 37° C./5% CO2 for one hour followed by evaluation of fluorescence at 485 ex/535 em. Proliferation inhibition was analyzed relative to control wells on each time point. Data was averaged from two trials with n=6 for SMC II and one trial of n=4 for SMC III.
(§3) In-vitro studies to measure anti-proliferative activity of QA against pulmonary hypertension were performed using primary human PASMC (FIG. 3), primary bovine PASMC (FIG. 4) and high altitude PASMC (HAPASMC) (FIG. 4). HAPASMC, due to prolonged hypoxia exposure, are known to be hyper-proliferative in regular culture conditions, while hyper-proliferation was induced in PASMC cells by 24 hour serum starvation, or by exposure to 5-hydroxytryptamine (5-HT). […]

[5] = test system: 5-HT induced bovine PASMC; test: Anti-proliferative efficacy in 5-hydroxytryptamine induced hyper-proliferation; type: cell-based; settings: 1.5-5.0 μM, time- and concentration-dependent
Experimental: as §1, §2, §3

primary human PASMCs = test: Caspase-3 assay (apoptotic induction); type: cell-based; settings: 6-hour treatment, 5 and 10 μM, concentration-dependent
Experimental: Caspase-3 level in SMC II cells was evaluated using EnzCheck™ Caspase-3 assay kit (ThermoFisher Scientific, Waltham, MA, USA) following the manufacturer's protocol. Briefly, upon 90% confluency, SMC II cells were harvested and seeded in 100 mm TC treated culture dishes at a density of 250,000 cells/well and allowed to adhere overnight. Following day, cells were treated with QA (5- and 10-μM) for 6 hours followed by harvesting. Harvested cells were lysed using a lysis buffer for 30 minutes on ice. The cells were centrifuged, and supernatant was used to analyze levels of a caspase-3 substrate aminomethylcoumarin (AMC)-derived substrate Z-DEVD-AMC (fluorescence measurement at 360 ex/460 em).
An apoptotic induction assay, i.e., Caspase-3 assay was performed to understand QA's impact on cellular apoptosis in primary human PASMCs following 6-hour treatment. […] Moreover, another apoptotic induction assay, i.e., Annexin V FITC assay was also used to measure the effects of QA on serum-starved bovine PASMCs.

SMILES: CCN(CC)CCCC(C)Nc1c2ccc(Cl)cc2nc2ccc(OC)cc12 (stereo not drawn) [QA, quinacrine]
- cellular hyper-proliferation [1]: Significant reduction
- RVSP [2]: 45.6±7.9 mmHg
- expression of Ki67 [3]: reduction in expression
- expression of PCNA [3]: reduction in expression
- expression of vWF [3]: did not show any reduction in expression
- expression of α-SMA [3]: did not show any reduction in expression
- proliferation [4]: significantly inhibits proliferation
- proliferation [5]: significantly inhibits proliferation
- caspase-3 levels (primary human PASMCs): increased caspase-3 levels
